Experiment [1] relates to HPDE (immortalized pancreatic duct cell line). In words: Drug combination viability screen (ATPlite, 72 h).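 Note: area under vehicle-normalized viability curve scaled 0 to 100 percent.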 The settings on record: single agent, HPDE. In kind it is cell-based, human. On the procedure:
(§1) Cell viability was assessed by measuring ATP levels to indicate metabolic activity.
(§2) Afterward, small amounts were transferred to 384-well intermediate plates (Greiner Bio-One GmbH, Germany). […] For drug combination screening, 1000 to 5000 cells were seeded into 384-well plates (CulturPlate™, Perkin Elmer, MA, USA) using a Multidrop™ Combi Reagent Dispenser (Thermo Scientific, MA, USA) in 50 µl medium per well 24 h prior to drug treatment (seeding densities see Appendix Table S1). […] The final DMSO concentration in each well was 0.2%. […] Eight wells per plate without library drug served as negative controls, and sixteen wells per plate containing 5 µM Staurosporine served as positive controls. Control plates not containing any drug were used to correct for incubation effects, and data quality was assessed by calculation of Z-prime of positive and negative controls according to1 Z-prime=1−3SDpos+3SDneg/[…] where SD is the standard deviation. […] Dose–response curves from the experimental and hypothetical data were compared, and shifts in AUC were used to describe combination effects (AUC∆ = AUChypothetical − AUCexperimental). […] Only combinations with R^2 > 0.8 in both conditions were considered in the synergy analysis.
Background: In ATP-based viability assays light output follows the ATP content of the culture.

The next experiment has as its system AsPC-1. Kind of experiment: cells. Also noted: ATPlite luminescence viability of PDAC cell lines, 11-dose single-agent curves, 4-parameter fit. Conditions: Homo sapiens, ASPC1, 72 h, read-out: EC50 [nM]. Put shortly: (§3)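 cells (1000 to 5000 per well) seeded 24 h before drug addition in a combination screen at 0.2% final DMSO. Controls were drug-free wells (negative) and 5 µM staurosporine (positive).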

The next experiment has as its system BxPC-3. Kind of experiment: cells. The arrangement: ATPlite luminescence viability of PDAC cell lines, 11-dose single-agent curves, 4-parameter fit. The settings on record: Homo sapiens, BXPC-3, 72 h, read-out: EC50 [nM]. The essentials:
as §3

Experiment [2] concerns Capan-1. Kind of experiment: cells. Also noted: ATPlite luminescence viability of PDAC cell lines, 11-dose single-agent curves, 4-parameter fit. The settings on record: Homo sapiens, CAPAN-1, 72 h, read-out: EC50 [nM]. The essentials:
as §3

For experiment [3], the system named is Colo-357. Kind of experiment: cells. Also noted: ATPlite luminescence viability of PDAC cell lines, 11-dose single-agent curves, 4-parameter fit. The settings on record: Homo sapiens, COLO357, 72 h, read-out: EC50 [nM]. The essentials: as §3
In a further experiment the test system is Dan-G. In words: cells. Also noted: ATPlite luminescence viability of PDAC cell lines, 11-dose single-agent curves, 4-parameter fit. Conditions: 72 h, read-out: EC50 [nM]. The essentials: as §3
A further experiment relates to FAMPAC. Kind of experiment: cells. Also noted: ATPlite luminescence viability of PDAC cell lines, 11-dose single-agent curves, 4-parameter fit. The settings on record: 72 h, read-out: EC50 [nM]. The essentials: as §3
For the next experiment, the system named is HPDE. In words: cells. Also noted: ATPlite luminescence viability of PDAC cell lines, 11-dose single-agent curves, 4-parameter fit. The settings on record: HPDE, 72 h, read-out: EC50 [nM]. Put shortly:
as §3

Experiment [4] concerns HuP-T4. Kind of experiment: cells. The settings on record: Homo sapiens, HuP-T4, 72 h, read-out: EC50 [nM]. The arrangement: ATPlite luminescence viability of PDAC cell lines, 11-dose single-agent curves, 4-parameter fit. Put shortly:
as §3

A further experiment concerns MiaPaCa-2. In words: cells. Also noted: ATPlite luminescence viability of PDAC cell lines, 11-dose single-agent curves, 4-parameter fit. Conditions: Homo sapiens, MIA PaCa-2, 72 h, read-out: EC50 [nM]. Put shortly:
as §3

Another experiment has as its system PSN-1. Kind of experiment: cells. Also noted: ATPlite luminescence viability of PDAC cell lines, 11-dose single-agent curves, 4-parameter fit. Conditions: Homo sapiens, PSN1, 72 h, read-out: EC50 [nM]. The essentials:
as §3

A further experiment concerns PaTu-8988-T. In words: cells. The arrangement: ATPlite luminescence viability of PDAC cell lines, 11-dose single-agent curves, 4-parameter fit. Conditions: Homo sapiens, PaTu 8988t, 72 h, read-out: EC50 [nM]. The essentials:
as §3

The next experiment concerns Suit2-07. In words: cells. Conditions: 72 h, read-out: EC50 [nM]. Also noted: ATPlite luminescence viability of PDAC cell lines, 11-dose single-agent curves, 4-parameter fit. The essentials:
as §3

In experiment [5] the test system is PANC-1. Kind of experiment: cells. Also noted: Viability of PDAC cell lines, ATPlite luminescence, 11-dose single-agent curve fit. The settings on record: Homo sapiens, PANC-1, 72 h, read-out: EC50 [nM]. Put shortly: (§4)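 cells (1000 to 5000 per well) seeded 24 h before drug addition in a screen at 0.2% final DMSO. Controls were drug-free wells (negative) and 5 µM staurosporine (positive).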

The subject of experiment [6] is PANC-1. Kind of experiment: cells. Also noted: ATPlite luminescence viability of PDAC cell lines, 11-dose single-agent curves, 4-parameter fit. The settings on record: Homo sapiens, PANC-1, 72 h, read-out: EC50 [nM]. Put shortly: as §3
The test system of a further experiment is 13 PDAC cell lines. In words: Phenotypic drug combination viability screen (ATPlite, 72 h), cell line panel. The class given is cell-based, human. The settings on record: single agent, 72 h. Here is the method: as §1, §2
Experiment [7] relates to Capan-1. Kind of experiment: cells. The arrangement: Viability of PDAC cell lines, ATPlite luminescence, 11-dose single-agent curve fit. The settings on record: Homo sapiens, CAPAN-1, 72 h, read-out: EC50 [nM]. Put shortly:
as §4

Experiment [8] concerns Colo-357. In words: cells. Also noted: Viability of PDAC cell lines, ATPlite luminescence, 11-dose single-agent curve fit. Conditions: Homo sapiens, COLO357, 72 h, read-out: EC50 [nM]. The essentials:
as §4

Experiment [9] concerns HuP-T4. In words: cells. Also noted: Viability of PDAC cell lines, ATPlite luminescence, 11-dose single-agent curve fit. Conditions: Homo sapiens, HuP-T4, 72 h, read-out: EC50 [nM]. Put shortly: as §4

The structures appear in SMILES notation. Where two headings read alike, the source gives them in different places.

One may read the EC50 as the concentration needed to bring the measured effect to its halfway point. For `O=C(/C=C\n1cnc(-c2cc(C(F)(F)F)cc(C(F)(F)F)c2)n1)NNc1cnccn1` [Selinexor], the AUC in experiment [1] is reported as less than 60%. The EC50 in the experiment with AsPC-1 came out at 229 nM; in the experiment on BxPC-3 it was 114 nM; in the experiment on Capan-1 [2], 226 nM; with Colo-357 [3], 190 nM; in the experiment with Dan-G, 113 nM; with FAMPAC, 97 nM. Also, the EC50 in the experiment on HPDE is 37.7 nM; in the experiment with HuP-T4 [4] it was 1200 nM; in the experiment on MiaPaCa-2 it was 190 nM; in the experiment on PSN-1 it was 64.2 nM; in the experiment on PaTu-8988-T it was 116 nM; with Suit2-07, 61 nM. In addition, the EC50 in the experiment with PANC-1 [5] was found to be 182 nM.
In the case of `CN(C)C/C=C/C(=O)Nc1cc2c(Nc3ccc(F)c(Cl)c3)ncnc2cc1O[C@H]1CCOC1` [Afatinib], the AUC in [1] is reported as less than 60%. In addition, the 50% effective concentration (EC50) was greater than 10000 nM in the experiment with AsPC-1; 6420 nM in the experiment on BxPC-3; 4990 nM with Capan-1 [2]; 1.6 nM in the experiment with Colo-357 [3]; 1.59 nM in the experiment on Dan-G; greater than 10000 nM with FAMPAC. Also, the EC50 in the experiment with HPDE was 22.8 nM; in the experiment with HuP-T4 [4], greater than 10000 nM; in the experiment on MiaPaCa-2, 1700 nM; in the experiment with PANC-1 [6], 6660 nM; with PSN-1, greater than 10000 nM; with PaTu-8988-T, 2740 nM. Further, in the experiment with Suit2-07, the concentration for a half-maximal effect (EC50) worked out at 9950 nM.
Take `CC(=O)Nc1cccc(-n2c(=O)n(C3CC3)c(=O)c3c(Nc4ccc(I)cc4F)n(C)c(=O)c(C)c32)c1` [Trametinib]: the “median AUC across all cell lines” value in the experiment with 13 PDAC cell lines is given as less than 70%. The EC50 is 3.02 nM with AsPC-1; 13.1 nM in the experiment with BxPC-3; 1.4 nM in the experiment with Dan-G; 9.21 nM in the experiment on FAMPAC; 7 nM in the experiment on HPDE; 3.92 nM with MiaPaCa-2. Also, the EC50 in the experiment on PSN-1 turned out to be 5.34 nM; in the experiment on PaTu-8988-T it was 7.98 nM; in the experiment with Suit2-07, 8.92 nM; with Capan-1 [7], 88.1 nM; in the experiment on Colo-357 [8], 1160 nM; in the experiment with HuP-T4 [9], 8.2 nM. In the experiment with PANC-1 [5], the EC50 was found to be 45.6 nM.

These data come from PMC11876601 (Molecular Systems Biology, 2025).
